The results in this text go back to US20020037872A1, “N6 heterocyclic 5' modified adenosine derivatives” (CV Therapeutics, Inc., priority 1999, published 2002).

Structures are written as SMILES. Read-outs that look alike come from different tables or passages of the source.

Test [1] addresses T1, A1 adenosine receptor (Mesocricetus auratus, UniProt A0A1U8BVR4).
T1 construct: endogenous in cells; host or cells: DDT1 (DDT1 MF-2) hamster vas deferens smooth muscle cells
T1 sequence (A0A1U8BVR4 1-326): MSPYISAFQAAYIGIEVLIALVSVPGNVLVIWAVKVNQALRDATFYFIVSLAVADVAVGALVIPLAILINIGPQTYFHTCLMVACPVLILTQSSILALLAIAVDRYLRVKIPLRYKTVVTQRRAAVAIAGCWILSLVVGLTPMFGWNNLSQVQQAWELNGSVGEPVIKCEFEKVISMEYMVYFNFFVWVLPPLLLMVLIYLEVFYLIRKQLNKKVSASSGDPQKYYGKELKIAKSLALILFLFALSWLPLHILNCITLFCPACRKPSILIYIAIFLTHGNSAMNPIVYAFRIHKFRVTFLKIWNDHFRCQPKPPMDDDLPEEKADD
Nature of the test: cAMP assay (SPA) in DDT1 cells, forskolin-induced cAMP. Format: cell-based, hamster. As to conditions: normalized to full agonist CPA, 5 μM forskolin, 50 μM rolipram; for Emax: 10 min. Here is the method: A scintillation proximity assay (SPA) using rabbit antibodies directed at cAMP using an added tracer of adenosine 3′,5′-cyclic phosphoric acid 2′-O-succinyl-3-[^125I]iodotyrosine methyl ester and fluoromicrospheres containing anti-rabbit specific antibodies as described by Amersham Pharmacia Biotech (Biotrak cellular communication assays). Briefly, DDT1 cells were cultured in clear bottomed 96 well microtiter plates with opaque wells at concentrations between 10^4 to 10^6 cells per well in 40 μl of HBSS at 37° C. (5% CO2 and 95% humidity). The partial or full A1 agonists (5 μl) of this invention were incubated at various concentrations with the DDT1 cells in the presence of rolipram (50 μM), and 5 μM forskolin for 10 min at 37° C. The cells were immediately lysed by treatment 5 μl of 10% dodecyltrirnethylammonium bromide followed by shaking using rnicroplate shaker. After incubation of the plate for 5 minutes, an imnuunoreagent solution (150 μl containing equal volumes of tracer, antiserum, and SPA fluorospheres) was added to each well followed by sealing the plate. After 15-20 h at 23° C., the amount of bound [^125] cAM to the fluoromicrospheres was determined by counting in a microtitre plate scintillation counter for 2 minutes. Comparison of counts with standard curves generated for cAMP using a similar protocol afforded the cAMP present after cell lysis.
In general terms: cAMP levels reflect the balance of adenylyl cyclase and phosphodiesterase activity.

Test [2] has as its target T1, A1 adenosine receptor. Nature of the test: [35S]GTPγS binding assay, A1-agonist stimulated. Format: biochemical, hamster. As to conditions: agonist stimulated [35S]GTPγS binding, CPA = 100%. On the procedure: (§1) Attached cells were washed twice with HBSS (2×10 ml), scraped free of the plate with the aid of a rubber policeman in 5 ml of 50 mM Tris-HCI buffer pH 7.4 at 4° C. and the suspension homogenized for 10 s. The suspension was then centrifuged at 27,000×g for 10 min. The pellet was resuspended in homogenization buffer by vortexing and centrifuged as described above. The final pellet was resuspended in 1 vol of 50 mM Tris-HCI buffer pH 7.4 containing 5 mM MgCl2 for A1 AdoR assays. For the [^35S]GTPγS binding assay the final pellet was resuspended in 50 mM Tris-HCI pH 7.4 containing 5 mM MgCl2, 100 mM NaCl and 1 mM dithiothreitol. This membrane suspension was then placed in liquid nitrogen for 10 min, thawed and used for assays. The protein content was determined by the method of Bradford (1976) using bovine serum albumin as standard.
A1-agonist stimulated [^35S]GTPγS binding was determined by a modification of the method described by Giersckik et al. (1991) and Lorenzen et al. (1993). […] Nonspecific binding was determined by the addition of 10 μM GTPγS. […] Previous reports have shown that agonist stimulated [^35S]GTPγS binding was dependent on the presence of GDP (Gierschik et al., 1991; Lorenzen et al., 1993; Traynor & Nahorski, 1995). […] In saturation experiments, 0.5 nM [^35S]GTPγS was incubated with 0.5-1000 nM GTPγS. At the end of the incubation, each suspension was filtered and the retained radioactivity determined as described above.

Another test addresses T2, A1 receptor (Mesocricetus auratus, UniProt A0A1U8BVR4).
T2 construct: endogenous in cells; host or cells: DDT1 (DDT1 MF-2) hamster vas deferens smooth muscle cells
T2 sequence (A0A1U8BVR4 1-326): T1 sequence (A0A1U8BVR4 1-326)
Nature of the test: Competitive binding assay, DDT1 cell membranes, [3H]CCPA. Also noted: species or system hamster. The conditions noted are these: [3H]CCPA 2 nM. Here is the method: Cells were subcultured twice weekly by dispersion in Hank's Balanced Salt Solution (HBSS) without the divalent cations and containing 1 mM EDTA. The cells were then seeded in growth medium at a density of 1.2×10^5 cells per plate and experiments were performed 4 days later at approximately one day preconfluence.
as §1, with “assays.” for “assays. The protein content was determined by the method of Bradford (1976) using bovine serum albumin as standard.”
Competitive Binding Assay Pig striatum were prepared by homogenation in 50 mM Tris buffer (5× volume of tissue mass pH=7.4). After centrifilgation at 19,000 rpm for 25 minutes at 4° C., the supernatant was discarded, and the process was repeated twice. Compositions of this invention were assayed to determine their affinity for the A1 receptor in a pig striatum membrane prep or a DDT, membrane prep. Briefly, 0.2 mg of pig striatal membranes or DDT, cell membranes were treated with adenosine deaminase and 50 mM Tris buffer (pH=7.4) followed by mixing. To the pig membranes was added 2 μL of serially diluted DMSO stock solution of the compounds of this invention at concentrations ranging from 100 microM to 10 nM. The control received 2 microL of DMSO alone, then the antagonist [^3H] 8-cyclopentylxanthine (CPX) for pig striatum or the agonist [^3H] 2-chloro-6-cyclopentyladenosine (CCPA) for DDT, membranes in Tris buffer (50 mnM, pH of 7.4) was added to achieve a final concentration of 2 nM. After incubation at 23 C for 2 h, the solutions were filtered using a membrane harvester using multiple washing of the membranes (3×). The filter disks were counted in scintillation cocktail affording the amount of displacement of triated CPX or by the competitive binding compositions of this invention. In the case of the DDT1 cell membranes, some of the determinations of binding affinity (Ki) were made in the presence of Gpp(NH)p as noted in Table 1 (note: Gpp(NH)p shifts the receptor to a low affinity form). Greater than a 5 point curve was used to generate Ki's and the number of experiments is indicated in the column marked in Table 1 below.

Setting [3] is: in presence of Gpp(NH)p (low affinity form), read-out: Ki - DDT1 cell membrane In presence of Gpp (NH)p.
The mark [4] stands for this setting: DDT1 cell membranes, read-out: Ki-DDT1 cell membrane.

As a reminder, the Emax is the maximal effect, on the per cent scale that the assay sets. One may read the Ki as a dissociation constant, usually derived from enzyme kinetics or from competition with a known ligand.

In the case of `O=C(NCC1OC(n2cnc3c(N[C@@H]4CCOC4)ncnc32)C(O)C1O)OC1CCCC1` (stereo partly shown) [Compound 70], the values for the Emax on A1 adenosine receptor [1] and at A1 adenosine receptor [2] were 79% and 76%, respectively.
As to `OC1C(COC(=S)NC2CCCC2OCc2ccccc2)OC(n2cnc3c(N[C@@H]4CCOC4)ncnc32)C1O` (stereo partly shown) [Compound 57], the cAMP on A1 adenosine receptor [1] worked out at 73%. At A1 adenosine receptor [2], the Emax came out at 67%.
In the case of `O=C(NC1CC1c1ccccc1)OC[C@H]1O[C@@H](n2cnc3c(N[C@@H]4CCOC4)ncnc32)[C@H](O)[C@@H]1O` (stereo partly drawn) [Compound 40, [(5-{6-[((3R)oxolan-3-yl)amino}purin-9-yl}(3S,2R,4R,5R)-3,4-dihydroxyoxolan-2-yl)methoxy]-N-(2-phenylcyclopropyl)carboxamide], the Emax on A1 adenosine receptor [1] is -14%; at A1 adenosine receptor [2], -6%.
For the compound `COC(=O)NCC1OC(n2cnc3c(N[C@@H]4CCOC4)ncnc32)C(O)C1O` (stereo partly shown) [Compound 18], the Emax on A1 adenosine receptor [1] came out at 86%; at A1 adenosine receptor [2] it was 77%.
On to `O=c1occn1CC1OC(n2cnc3c(N[C@@H]4CCOC4)ncnc32)C(O)C1O` (stereo partly shown) [Compound 80], for which the Emax on A1 adenosine receptor [1] was 64%; on A1 adenosine receptor [2], 80%.
The matching figures for `OC1C(COC(=S)NC2CC2)OC(n2cnc3c(N[C@@H]4CCOC4)ncnc32)C1O` (stereo partly shown) [Compound 59]: 115% and 82%.
The like results for `OC1CCCC1NC(=S)OCC1OC(n2cnc3c(N[C@@H]4CCOC4)ncnc32)C(O)C1O` (stereo partly shown) [Compound 63] were, in that order, 115% and 100%.
With `OC1C(COC(=S)NC2CCC2)OC(n2cnc3c(N[C@@H]4CCOC4)ncnc32)C1O` (stereo partly drawn) [Compound 58, 2-{1[((3)oxolan-3-yl)amino]purin-9-yl}(4S,2R,3R,5R)-5-{[(cyclobutylamino)thioxomethoxy]methyl}oxolane-3,4-diol], the Emax on A1 adenosine receptor [1] is 78%; on A1 adenosine receptor [2], 79%.
With `O=C(NC1CCCC1OCc1ccccc1)OCC1OC(n2cnc3c(N[C@@H]4CCOC4)ncnc32)C(O)C1O` (stereo partly shown) [Compound 38], the cAMP at A1 adenosine receptor [1] was −25%. Besides, the GTPγS at A1 adenosine receptor [2] amounted to 1%.
For `O=C(NC1CCCC1C(=O)O)OCC1OC(n2cnc3c(N[C@@H]4CCOC4)ncnc32)C(O)C1O` (stereo partly shown) [Compound 65], the Emax was found to be 95% on A1 adenosine receptor [1] and 81% on A1 adenosine receptor [2].
As to `OC1C(CNC(=S)OC2CCCC2)OC(n2cnc3c(N[C@@H]4CCOC4)ncnc32)C1O` (stereo partly drawn) [Compound 72, 2-{6-[((3R)oxolan-3-yl)amino]purin-9-yll(4S,2R,3R,5R)5-{[cyclopentyloxythioxomethyl)amino]methyl}oxolane3,4-diol], the Emax was determined as 103% at A1 adenosine receptor [1] and 93% on A1 adenosine receptor [2].
Consider `CNC(=S)OC[C@H]1O[C@@H](n2cnc3c(N[C@@H]4CCOC4)ncnc32)[C@H](O)[C@@H]1O` [Compound 45, 2-{6-[((3R)oxolan-3-yl)amino]purin-9-yl}(4S,2R,3R,5R)-5 {1(methylamino)thioxomethoxylmethyl}oxolane3,4diol], for which the Emax on A1 adenosine receptor [2] amounted to 77%. On A1 receptor (setting [3]), the inhibitory constant (Ki) came out at 141 nM.
For `CN(C)C(=S)OC[C@H]1O[C@@H](n2cnc3c(N[C@@H]4CCOC4)ncnc32)[C@H](O)[C@@H]1O` [Compound 53, 2-{6-[((3R)oxolan-3-yl)amino]purin-9-yl}(4S,2R,3R,5R)-5-{[(dimethylamino)thioxomethoxy]methyl}oxolane-3,4-diol], the Emax at A1 adenosine receptor [2] turned out to be 85%. The Ki amounted to 245 nM at A1 receptor (setting [4]) and 2110 nM at A1 receptor (setting [3]).
Regarding `OC1C(COC(=S)NC2CCCCC2)OC(n2cnc3c(N[C@@H]4CCOC4)ncnc32)C1O` (stereo partly shown) [Compound 55], at A1 adenosine receptor [2], the Emax amounted to 82%. Further, the figures for the Ki at A1 receptor (setting [4]) and on A1 receptor (setting [3]) were 252 nM and 962 nM, respectively.
For the compound `OC1C(COC(=S)N2CCCCC2)OC(n2cnc3c(N[C@@H]4CCOC4)ncnc32)C1O` (stereo partly shown) [Compound 50], the Emax on A1 adenosine receptor [2] is 88%. Further, the values for the inhibition constant Ki on A1 receptor (setting [4]) and at A1 receptor (setting [3]) were 642 nM and 1950 nM, respectively.
For `CC(C)NC(=O)OCC1OC(n2cnc3c(N[C@@H]4CCOC4)ncnc32)C(O)C1O` (stereo partly shown) [Compound 32], the Emax at A1 adenosine receptor [2] was 91%. Besides, the Ki on A1 receptor (setting [3]) worked out at 431 nM.
On to `CNC(=O)OC[C@H]1O[C@@H](n2cnc3c(N[C@@H]4CCOC4)nc(Cl)nc32)[C@H](O)[C@@H]1O` [Compound 13, [(5-{6-[((3R)oxolan-3-yl)amino]-2-chloropurin-9-yl}(3S,2R,4R,5R)3,4dihydroxyoxolan-2-yl)methoxy]-N-methylcarboxamide], for which the Emax on A1 adenosine receptor [2] came out at 77%. The inhibition constant Ki at A1 receptor (setting [4]) was found to be 129 nM.
The matching figures for `O=C(NC1CCCC1)SCC1OC(n2cnc3c(NC4CCOC4)ncnc32)C(O)C1O` [Compound 73, [(5-{6-[((3R)oxolan-3-yl)amino]purin-9-yl}(2S,3S,4R,5R)3,4-dihydroxyoxolan-2-yl)methythio]-N-cyclopentylcarboxamide]: 109% and 183 nM.
In the case of `CCCNC(=S)OC[C@H]1O[C@@H](n2cnc3c(N[C@@H]4CCOC4)ncnc32)[C@H](O)[C@@H]1O` [Compound 49, 2-{6-[((3R)oxolan-3-yl)amino]purin-9-yl}(4S,2R,3R,5R)-5 {[(propylamino)thioxomethoxy]methyl}oxolane3,4-diol], on A1 adenosine receptor [2], the Emax came to 89%. For the same compound, on A1 receptor (setting [3]), the inhibitory constant (Ki) was found to be 145 nM.
In the case of `CNC(=O)SC[C@H]1O[C@@H](n2cnc3c(N[C@@H]4CCOC4)ncnc32)[C@H](O)[C@@H]1O` [Compound 22, [(5-{6-[((3R)oxolan-3-yl)amino]purin-9-yl}(2S,3S,4R,5R)-3,4&hydroxyoxolan-2-yl)methythio]-N-methylcarboxamide], at A1 adenosine receptor [2], the Emax came out at 98%. Moreover, the Ki on A1 receptor (setting [4]) turned out to be 36 nM.
